Data from PubChem BioAssay AID1241 (SRMLSC, 2008).

assay: NF-kB promoter reporter activators, neuronal cells, dose response, cell-based, SH-SY5Y, luciferase (AID 1241); conditions: fold induction

Row | Structure (SMILES) | EC50
1 | O=C(CCc1ccccc1)Nc1ccc2ccccc2n1 | 16200 nM
2 | O=S(=O)(c1ccc(Cl)cc1)c1snnc1-c1ccccc1 | 2330 nM
3 | O=C(Nc1ccccc1)Nc1nc2ccccc2s1 | 27200 nM
4 | COCC(=O)Nc1nnc(-c2ccc(C(C)(C)C)cc2)s1 | 11000 nM
5 | CCOC(=O)CSc1nc(-c2ccncc2)ccc1C#N | 6770 nM
6 | CCC(=O)Nc1ccc2oc(-c3ccccc3Br)nc2c1 | 2640 nM
7 | O=C1/C(=C/c2cccs2)CCc2ccccc21 | 4120 nM
8 | Brc1ccccc1-c1nc(-c2ccccc2)no1 | 2080 nM
9 | Cc1ccc(N2Cc3ccccc3C2=S)cc1 | 5150 nM
10 | COc1ccc(/C=N/Nc2nc3ccccc3o2)cc1O | 2140 nM
11 | COc1cc(SC)ccc1C(=O)NCCOc1ccccc1Cl | 15500 nM
12 | CCNC(=O)O/N=C(\C)c1sc(-c2ccc(Cl)cc2)nc1C | 1630 nM
13 | Cc1ccc(C(=O)c2cc([N+](=O)[O-])ccc2N2CCOCC2)c(C)c1 | 3030 nM
14 | Cc1ccc(/C=C/C(=O)NC2=NCCS2)cc1 | 4320 nM
15 | C(=N\NC1=Nc2cccc3cccc1c23)/c1ccccn1 | 7600 nM
16 | CCc1ccc(C(=O)/C=C/c2cnn(C)c2C)s1 | 7900 nM
17 | Cc1c(C(=O)N2CCc3ccccc32)oc2ccccc12 | 3370 nM
18 | CC(/C=N/NC(=O)c1cccs1)=C\c1ccccc1 | 2310 nM
19 | CC(C)(C)c1ccc2c(c1)C(=O)c1ccccc1C2=O | 3190 nM
20 | O=c1c(-c2ccc3c(c2)OCCO3)coc2cc(O)cc(O)c12 | 22700 nM

Row | Structure (SMILES) | EC50
21 | CCN(CC)C(=O)c1sc2nc(-c3ccccc3)ccc2c1N | 3090 nM
22 | O=C(NC1CCCCCCC1)c1ccc2c(c1)OCO2 | 11000 nM
23 | C(=N\Nc1ncnc2ccccc12)/c1ccccc1 | 4030 nM
24 | CCOC(=O)C1CCN(Cc2ccc(O)c3ncccc23)CC1 | 2510 nM
25 | COC(=O)CSc1nc(-c2cccs2)ccc1C#N | 5620 nM
26 | C/C(=N\Nc1nc2ccccc2[nH]1)c1cccs1 | 2800 nM
27 | S=C(Nc1ccccn1)c1ccccn1 | 2030 nM
28 | Cc1ccc(-c2cnc3c(Cl)c(C)nn3c2)cc1 | 11500 nM
29 | CC1CC1C(=O)OCC(=O)Nc1ccc(N=Nc2ccccc2)cc1 (configuration not stated) | 15400 nM
30 | Cc1ccc(-c2cc(-c3cccc(F)c3)n[nH]2)c(O)c1 | 4400 nM
31 | COc1ccc(-c2csc(Nc3ccccc3)n2)cc1 | 2490 nM
32 | COc1ccc(/C=C/c2nc3ccccc3n2Cc2ccccc2OC)cc1 | 4980 nM
33 | CCOC(=O)c1cnc2c(-c3ccccc3)cnn2c1C | 7520 nM
34 | COC(=O)c1ccc(-c2nc3ccc(C)cc3o2)cc1 | 3300 nM
35 | O=C(Nc1ccccc1O)c1ccc(NS(=O)(=O)c2cccc3cccnc23)cc1 | 21900 nM
36 | CC(C)N=c1scc(-c2ccco2)n1/N=C/c1ccc(O)c(O)c1 | 6500 nM
37 | CC(=O)c1sc(N/N=C\c2ccccc2O)nc1C | 5530 nM
38 | Cc1ccccc1Nc1nnc(SCC2CCCCO2)s1 (configuration not stated) | 5760 nM
39 | Cc1ccc(/C=C2\Sc3ccccc3C2=O)s1 | 5980 nM

Further compounds by falling EC50, results first:

Row | EC50 | Structure (SMILES)
40 | 1930 nM | CCOC(=O)c1ccc2nc(NC(=O)c3cccs3)sc2c1
41 | 1750 nM | Cc1ccc(-c2nc3cc(Cl)ccc3o2)cc1
42 | 1610 nM | c1ccc(N2CCN(c3cnc4ccccc4n3)CC2)cc1
43 | 1510 nM | Cc1cc(O)ccc1Nc1nc(-c2cccs2)cs1
44 | 1490 nM | O=C(c1ccccc1)n1ccc(-c2cnc(-c3ccccc3)s2)n1
45 | 1440 nM | COc1ccc(-n2nc3cc(C)c(N)c(Br)c3n2)cc1
46 | 1390 nM | Nc1nc2ccc(-c3nc4ccccc4o3)cc2s1
47 | 1280 nM | O=C(/C=C/c1ccco1)Nc1ccc2c(c1)OCCO2
48 | 1280 nM | CN1/C(=C\C(=O)c2cccs2)Sc2ccccc21
49 | 1220 nM | Cc1cccc(Nc2nc(-c3cccs3)cs2)n1
50 | 1140 nM | COc1ccc2cc(-c3cc(C(=O)O)c4ccccc4n3)ccc2c1
51 | 1100 nM | CCOC(=O)CSc1nc2cc(C)ccc2cc1C#N
52 | 1060 nM | N/C(=N\OC(=O)COc1ccc(Br)cc1Cl)c1ccccn1
53 | 1020 nM | COc1ccc(C(=O)/C=C/c2cn(CN3CCN(C)CC3)c3ccccc23)cc1
54 | 986 nM | COc1ccc(C(=O)/C=C/Nc2cccc(O)c2)cc1
55 | 952 nM | CCOC(=O)c1sc(NC(=O)c2sccc2C)cc1C
56 | 887 nM | C(=N\Nc1nc2ccccc2s1)/c1cccs1
57 | 824 nM | O=C1CCOc2cc(OCc3ccccc3)ccc21
58 | 816 nM | Cn1c(-c2ccco2)nc2cc3ccccc3cc21
59 | 762 nM | CC(C)CC(=O)N/C(N)=N/c1nc2ccccc2s1
60 | 718 nM | COc1ccccc1N1CCN(c2ccc(-c3ccccc3)nn2)CC1
61 | 702 nM | CC(=O)Nc1cccc(-c2csc(Nc3ccc(C)cn3)n2)c1
62 | 636 nM | c1ccc(-c2ccc(-c3nc(-c4ccncc4)no3)cc2)cc1
63 | 598 nM | C=CCNc1nc(-c2cc3ccccc3o2)cs1
64 | 557 nM | Cc1ccnc(NC(=O)/C=C/c2ccccc2[N+](=O)[O-])c1
65 | 516 nM | CCN(CC)S(=O)(=O)c1cc(C(=O)OCC(=O)Nc2ccc(-c3nc4ccc(C)cc4s3)cc2)ccc1F
66 | 250 nM | CCCCc1ccc(NC(=O)c2cnccn2)cc1
67 | 155 nM | Cc1ccc2nc(-c3ccc(NC(=O)CCN4C(=O)c5ccccc5C4=O)cc3)sc2c1
